Test results as given in article PMC8398714, “Synthesis and Evaluation of Biological Activities of Bis(spiropyrazolone)cyclopropanes: A Potential Application against Leishmaniasis” (Molecules, 2021).
“Also recorded” adds a separate entry of the source. Where two headings read alike, the source gives them in different places.

Legend:
RKO = experiment: MTS cell viability assay on RKO cells; format: cell-based; conditions: Homo sapiens, 48 h; for inhibition at 100 µM: Dox 1 µM, mean ± SEM, NA = no activity, read-out: Percentage (%) of inhibition, RKO; for IC50: 15-150 µM, mean ± SEM of triplicates
Method: (§1) Five tumor human cancer cell lines—cerebral astrocytoma (D-384), grade IV prostatic adenocarcinoma (PC-3), mammary adenocarcinoma (MCF-7), human colon carcinoma (RKO) and lung carcinoma (A-549)—along with one immortalized hamster cell line (CHO K-1) were used. The cells PC-3, MCF-7 and RKO were cultured in RPMI-1640, D-384 on DMEM and CHO K-1 on HAM F-12 medium supplemented with 10% fetal bovine serum (FBS, Invitrogen, Karlsruhe, Germany), 1% antibiotic-antimitotic solution (100 units/mL penicillin G, 100 µg/mL streptomycin, and 0.25 µg/mL amphotericin B, Gibco, Grand Island, NY, USA), and 1% L-glutamine (2 mM, Gibco). The cells were incubated at 37 °C in a 5% CO2 atmosphere. The viable cells were counted using the trypan blue exclusion method in a hemocytometer.
(§2) The MTS (5-[3-(carboxymethoxy)phenyl]-3-(4,5-dimethyl-2-thiazolyl)-2-(4-sulfo- phenyl)-2H-tetrazolium inner salt) cell viability assay was used to assess the inhibitory effects of the extracts on the survival of human cancer cell lines. A total of 3–5 × 10^3 cells/well were seeded into 96-well plates and were allowed to adhere for 24 h. […] Each concentration/assay was performed three times. Dimethyl sulfoxide (DMSO) was used as a negative control at a final concentration of 0.1% v/v, and 1 µM Doxorubicin was used as a positive control. The cells were incubated with the treatments for 48 h, after which 20 µL MTS (5 mg/mL, Aqueous One Solution Reagent, Gibco) was added and further incubated for 4 h at 37 °C. The absorbance was measured at 570 nm. The data obtained with cells treated with DMSO were defined to represent 100% viability.

CHO-K1 = experiment: MTS cell viability assay on immortalized CHO-K1 cells; format: cell-based, hamster; conditions: 48 h, Dox 1 µM, mean ± SEM, NA = no activity, read-out: Percentage (%) of inhibition, CHO-K1
Method: as §1, §2

[1] = system: promastigotes of Leishmania mexicana; experiment: Leishmanicidal activity, MTT assay on promastigotes; format: cell-based; conditions: for SI (Selectivity Index) = Citotoxic activity/Leishmanicidal activity: CC50 RAW / IC50 L. mexicana; for IC50: Leishmania mexicana
Method: The leishmanicidal activity of all compounds was evaluated by measuring promastigotes’ mitochondrial activity using MTT colorimetric assay as described previously. In this study, promastigotes from Leishmania mexicana were used. The species were confirmed by amplifying and sequencing cytochrome b gene. Promastigotes were cultured at 25 °C in Schneider’s Drosophila Medium (Gibco, Invitrogen, Carlsbad, CA, USA) supplemented with 10% fetal bovine serum (Eurobio, Les Ulis, France). The medium was renewed every third day. Parasite density was determined by counting the cells using a Neubauer chamber.
Into each well of a 96-well plate were dispensed 1 × 10^6 parasites/well. A stock solution of the compounds was prepared in DMSO (Sigma Aldrich, Saint Louis, MO, USA), and serial dilutions were added to the parasite suspension, leading to concentrations ranging from 100 to 0.001 µM, keeping the solvent concentration at 0.5%. The final volume was 200 µL for each well and triplicate conditions were carried out. Amphotericin B (Gibco) treatment (1 µM) untreated parasites and DMSO 0.5% were used as positive and negative controls, respectively. After exposure to the compounds for 48 h in culture medium, 20 µL of a solution of 5 mg/mL MTT dissolved in PBS were added to each well. The plate was incubated at 25 °C for 2 h in darkness. The plate was then centrifuged at 4400 rpm for 10 min and the culture medium was then aspirated; 50 µL of DMSO were added into each well to solubilize the formazan crystals and the plate was shaken for 5 min and then it was measured by recording changes in absorbance at 570 nm using a microplate reader Cytation 5 (BioTek) spectrophotometer. A reference wavelength of 630 nm was used as background subtraction. Optical densities were analyzed because the quantity of formazan is directly proportional to the number of viable parasites. Data were analyzed with the statistical software GraphPad Prism 7.02 (GraphPad Software, Corp.).

[2] = system: Leishmania mexicana cells; experiment: Comet assay of Leishmania mexicana cells; format: cell-based; set-up: Comet tail length, mean (vary) / Comet tail length, median (Q50): unit not given here; conditions: L. mexicana, 24 h at MIC; for Comet tail length, mean (vary) / Comet tail length, median (Q50): MMS 0.011%, Kruskal-Wallis $means; for Genotoxic effect (DNA breaks) in comet assay: in words
Method: We quantified DNA breaks by a comet assay to determine if these compounds are genotoxic. Here, L. mexicana cells were exposed for 24 h to MIC concentrations previously determined (see Materials and Methods Section) for each compound. Figure 1 represents the measurements obtained for tail length. All compounds generated DNA breaks expect 4s. […] Samples with DMSO and MMS (0.011%) were included as controls. Some representative pictures are shown at Figure S4. The effect of 4p could not be determined because the cells appear to be very damaged. The data was subjected via a Kruskal–Wallis one-way ANOVA (Statistical Analyses S2). […] These observations support a mechanism of action through the generation of DNA damage.
For leishmania, a method previously described for yeast was adapted. Briefly, after incubating the cells in presence of the compounds for 24 h, cells were collected and washed with buffer S (1 M sorbitol, 25 mM KH2PO4 in ultrapure water and adjust to pH 6.5 with NaOH). The pellet was resuspended in 400 µL of 1.5% LMA and 40 µL was spread (second layer) onto previously agarose-coated slides (first layer).
Slides were immersed in cold lysis buffer (30 mM NaOH, 1 M NaCl, 0.05 % (w/v) lauroylsarcosine, 50 mM EDTA, and 10 mM Tris–HCl, pH 10) for 25 min and then in cold electrophoresis alkaline buffer (30 mM NaOH, 10 mM EDTA, and 10 mM Tris–HCl, pH 10). They were then subjected to electrophoresis at 26V and 300 mA. Slides were immersed in neutralization buffer (10 mM Tris–HCl, pH 7.4; prepared in advance and stored at 4 °C) for 10 min at room temperature. The cells were then treated with proteinase K (20 min, 37 °C in humid chamber), followed by a new neutralization step. To dehydrate the slides, they were immersed in EtOH 90% and EtOH absolute for 10 min each. Finally, the slides were stained with Sybr Gold 1X.
The DNA migration was analyzed using a LEICA microscope with fluorescence (40×) by scoring 100 cells per slide in duplicate. The tail moment parameter was then analyzed by the Comet Score software.

HeLa = experiment: MTS cell viability assay on HeLa cells; format: cell-based; conditions: Homo sapiens, 48 h, Dox 1 µM, mean ± SEM, NA = no activity, read-out: Percentage (%) of inhibition, HeLa
[3] = MTS cell viability assay on A-549 cells; format: cell-based; conditions: Homo sapiens; 48 h, 15-150 µM, mean ± SEM of triplicates
[4] = read-out: IC50 original values, x.1 (Mean)
[5] = L. mexicana promastigotes, 48 h, MTT, read-out: Leishmanicidal Activity IC50

| Structure (SMILES) | inhibition at 100 µM (RKO) | inhibition at 100 µM (CHO-K1) | SI (Selectivity Index) = Citotoxic activity/Leishmanicidal activity [1] | IC50 [1, 4] | IC50 [1, 5] | Comet tail length, mean (vary) [2] | Comet tail length, median (Q50) [2] | melting point | inhibition at 100 µM (HeLa) | IC50 (RKO) | IC50 [3] | Genotoxic effect (DNA breaks) in comet assay [2] |
| --- | --- | --- | --- | --- | --- | --- | --- | --- | --- | --- | --- | --- |
| CC1=NN(c2ccccc2)C(=O)[C@@]12C(c1ccccc1)[C@@]21C(=O)N(c2ccccc2)N=C1C (relative stereo) [4b, (5R*,6R*)-4,10-Dimethyl-2,8,11-triphenyl-2,3,8,9-tetraazadispiro[4.0.4.1]undeca-3,9-diene-1,7-dione] | 21.7 ± 2.37% | 5.76 ± 3.08% | 21.3 | 158 nM | 160 nM | 50400000 | 55000000 | 129 to 130 °C |  |  |  |  |
| CC1=NN(c2ccccc2)C(=O)[C@@]12C(c1ccccc1[N+](=O)[O-])[C@@]21C(=O)N(c2ccccc2)N=C1C (relative stereo) [4c, (5R*,6R*)-11-(2-Nitrophenyl)-4,10-dimethyl-2,8-diphenyl-2,3,8,9-tetraazadispiro[4.0.4.1]undeca-3,9-diene-1,7-dione] | 37.3 ± 1.22% | 2.62 ± 2.2% | 15.3 | 150 nM | 150 ± 40 nM | 70710000 | 72500000 | 165.1 to 165.5 °C | 24.8 ± 1.74% |  |  |  |
| COc1ccc(C2[C@@]3(C(=O)N(c4ccccc4)N=C3C)[C@]23C(=O)N(c2ccccc2)N=C3C)cc1 (relative stereo) [4e, (5R*,6R*)-11-(4-Methoxyphenyl)-4,10-dimethyl-2,8-diphenyl-2,3,8,9-tetraazadispiro[4.0.4.1]undeca-3,9-diene-1,7-dione] | 36.8 ± 1.55% |  | 4.9 | 1480 nM | 1480 ± 250 nM | 65120000 | 64500000 | 163.5 to 165.7 °C | 47.8 ± 2.45% |  |  |  |
| COc1ccccc1C1[C@@]2(C(=O)N(c3ccccc3)N=C2C)[C@]12C(=O)N(c1ccccc1)N=C2C (relative stereo) [4f, (5R*,6R*)-11-(2-Methoxyphenyl)-4,10-dimethyl-2,8-diphenyl-2,3,8,9-tetraazadispiro[4.0.4.1]undeca-3,9-diene-1,7-dione] | 28.7 ± 0.29% | 2.79 ± 1.49% | 5.7 | 2230 nM | 2230 ± 70 nM | 75100000 | 80500000 | 147.8 to 149 °C |  |  |  |  |
| CC1=NN(c2ccccc2)C(=O)[C@@]12C(c1ccc([N+](=O)[O-])cc1)[C@@]21C(=O)N(c2ccccc2)N=C1C (relative stereo) [4k, (5R*,6R*)-11-(4-Nitrophenyl)-4,10-dimethyl-2,8-diphenyl-2,3,8,9-tetraazadispiro[4.0.4.1]undeca-3,9-diene-1,7-dione] | 67.6 ± 0.77% |  | 11.0 | 295 nM | 300 ± 90 nM | 142780000 | 128000000 | 145.3 to 152.9 °C (dec.) | 47.2 ± 1.36% | 84 ± 9.46 µM | 114 ± 6.37 µM | biggest genotoxic effects; also recorded: strongest effects |
| CC1=NN(c2ccccc2)C(=O)[C@@]12C(c1ccc(OC(F)(F)F)cc1)[C@@]21C(=O)N(c2ccccc2)N=C1C (relative stereo) [4s, (5R*,6R*)-11-(4-Trifluoromethoxyphenyl)-4,10-dimethyl-2,8-diphenyl-2,3,8,9-tetraazadispiro[4.0.4.1]undeca-3,9-diene-1,7-dione] | 70.2% |  | 45.3 | 189 nM | 190 ± 70 nM | 39720000 | 39500000 | 150.5 to 151.5 °C | 43.6 ± 1.75% | 63.8 ± 6.48 µM | 78.5 ± 7.08 µM | weakest |
| CC1=NN(c2ccccc2)C(=O)[C@@]12C(c1cccc(F)c1)[C@@]21C(=O)N(c2ccccc2)N=C1C (relative stereo) [4t, (5R*,6R*)-11-(3-Fluorophenyl)-4,10-dimethyl-2,8-diphenyl-2,3,8,9-tetraazadispiro[4.0.4.1]undeca-3,9-diene-1,7-dione] | 47.6 ± 0.95% | 5.08 ± 2.84% | 12.3 | 216 nM | 220 ± 50 nM | 124410000 | 116000000 | 152.1 to 153 °C | 5.06 ± 2.43% |  |  | biggest genotoxic effects |
| CSc1ccc(C2[C@]3(C(=O)N(c4ccccc4)N=C3C)[C@@]23C(=O)N(c2ccccc2)N=C3C)cc1 (relative stereo) [4u, (5R*,6R*)-11-(4-Thiomethylphenyl)-4,10-dimethyl-2,8-diphenyl-2,3,8,9-tetraazadispiro[4.0.4.1]undeca-3,9-diene-1,7-dione] | 41 ± 1.49% | 5.76 ± 3.65% | 22.1 | 417 nM | 420 ± 250 nM | 179560000 | 177500000 | 154.4 to 157.3 °C | 34.7 ± 2.29% |  |  | highest genotoxic activity; also recorded: strongest effects |
